From patent US9856216B2, “Compounds as TNIK, IKKε and TBK1 inhibitors and pharmaceutical composition comprising same” (GREEN CROSS CORPORATION, priority 2015, dated 2018)

target: T1, TNIK (Homo sapiens, UniProt Q9UKE5); assay: ADP-Glo Kinase Assay, inhibition activity on TNIK; format: biochemical; details: not given
T1 construct: purchased Promega V4158
Procedure: The inhibition activities on TNIK, IKKε and TBK1 were measured by a luminometer, TNIK/IKKε/TBK1 Kinase Enzyme System (Promega, Ca# V4158; Invitrogen, PR8031B, Promega, Ca# V3991) and ADP-Glo Kinase Assay using ADP-Glo™ Kinase Analysis Kit (Promega, Ca# V9101) and a kinase reaction buffer [40 mM Tris(pH 7.5), 20 mM MgCl2, 0.1 mg/mL BSA] in accordance with the manufacturer's protocol.

T1 sequence (Q9UKE5 1-367 limits assumed): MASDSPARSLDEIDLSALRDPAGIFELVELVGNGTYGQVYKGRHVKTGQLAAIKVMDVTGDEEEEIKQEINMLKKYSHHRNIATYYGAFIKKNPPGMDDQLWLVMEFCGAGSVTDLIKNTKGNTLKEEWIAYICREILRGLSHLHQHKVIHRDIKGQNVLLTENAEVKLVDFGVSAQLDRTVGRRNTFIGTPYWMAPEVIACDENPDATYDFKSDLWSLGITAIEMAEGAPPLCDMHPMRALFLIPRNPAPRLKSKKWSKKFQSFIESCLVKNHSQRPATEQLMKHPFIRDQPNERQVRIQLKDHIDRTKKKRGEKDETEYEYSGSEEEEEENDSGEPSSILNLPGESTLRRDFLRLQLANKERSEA

TNIK (μM)	SMILES
Insoluble	O=C(Nc1ccc(-c2ccncc2)c2c1C(=O)NC2)c1ccccc1 [Example 127, N-(3-oxo-7-(pyridin-4-yl)isoindolin-4-yl)benzamide]

same assay, conditions: read-out: TNIK

IC50 [µM]	SMILES
2.95	O=C(Nc1ccc(-c2cccc3cc[nH]c23)c2c1C(=O)NC2)c1ccc(F)cc1 [Example 217, N-(7-(1H-indol-7-yl)-3-oxoisoindolin-4-yl)-4-fluorobenzamide]
2.2	O=C(Nc1ccc(-c2ccccc2)c2c1C(=O)NC2)c1ccc(F)cc1 [Example 122, 4-Fluoro-N-(3-oxo-7-phenylisoindolin-4-yl)benzamide]
> 20	COC(=O)c1ccccc1-c1ccc(NC(=O)c2ccccc2)c2c1CNC2=O [Example 8, methyl 2-(7-benzamido-1-oxoisoindolin-4-yl)benzo ate]
1	O=C(Nc1ccc(-c2cccc(Cl)c2Cl)c2c1C(=O)NC2)c1ccccc1 [Example 17, N-(7-(2,3-dichlorophenyl)-3-oxoisoindolin-4-yl)benzamide]
> 20	Nc1ccc(-c2ccccc2)c2c1C(=O)N(C(=O)NC1CCCCC1)C2 [Example 246, 7-Amino-N-cyclohexyl-1-oxo-4-phenylisoindolin-2-carboxamide]
0.38	O=C(Nc1ccc(-c2ccccc2)c2c1C(=O)NC2)c1ccc(NCCCCO)cc1 [Example 383, 4-((4-Hydroxybutyl)amino)-N-(3-oxo-7-phenylisoindolin-4-yl) benzamide]
0.61	Cc1cccc(Nc2ccc(NC(=O)c3ccc(NCCN4CCCCC4)cc3)c3c2CNC3=O)c1C [Example 471, N-(7-((2,3-dimethylphenyl)amino)-3-oxoisoindolin-4-yl)-4-((2-(piperidin-1-yl)ethyl)amino)benzamide]
1.7	Cc1cccc(C)c1-c1ccc(NC(=O)c2ccccc2)c2c1CNC2=O [Example 28, N-(7-(2,6-dimethylphenyl)-3-oxoisoindolin-4-yl)benzamide]
0.54	Cc1ccc(C(=O)Nc2ccc(-c3ccccc3)c3c2C(=O)NC3)s1 [Example 111, 5-Methyl-N-(3-oxo-7-phenylisoindolin-4-yl)thiophene-2-carboxamide]
2.32	O=C(Nc1ccc(-c2ccccc2)c2c1C(=O)NC2)c1ccccc1 [Example 117, N-(3-oxo-7-phenylisoindolin-4-yl)benzamide]
> 20	O=C(Nc1ccc(-c2ccccc2)c2c1C(=O)NC2)c1cccc(F)c1 [Example 130, 3-fluoro-N-(3-oxo-7-phenylisoindolin-4-yl)benzamide]
> 20	CC(C)(C)c1ccc(-c2ccc(NC(=O)c3ccccc3)c3c2CNC3=O)cc1 [Example 3, N-(7-(4-(tert-butyl)phenyl)-3-oxoisoindolin-4-yl)benzamide]
> 20	O=C1NCc2c(-c3ccccc3)ccc(NS(=O)(=O)c3ccccc3)c21 [Example 249, N-(3-oxo-7-phenylisoindolin-4-yl)benzenesulfonamide]
> 20	COc1ccccc1C(=O)Nc1ccc(-c2ccccc2)c2c1C(=O)NC2 [Example 129, 2-Methoxy-N-(3-oxo-7-phenylisoindolin-4-yl)benzamide]
> 20	O=C(Nc1ccc(-c2ccc(F)cc2)c2c1C(=O)NC2)c1ccccc1 [Example 205, N-(7-(4-fluorophenyl)-3-oxoisoindolin-4-yl)benzamide]
1.6	O=C(Nc1ccc(-c2ccccc2)c2c1C(=O)NC2)c1ccc(NCc2cccs2)cc1 [Example 333, N-(3-oxo-7-phenylisoindolin-4-yl)-4-((thiophen-2-ylmethyl)amino)benzamide]
0.41	COc1cccc(-c2ccc(NC(=O)c3ccccc3)c3c2C(=O)NC3=O)c1OC [Example 278, N-(7-(2,3-dimethoxyphenyl)-1,3-dioxoisoindolin-4-yl) benzamide]
7	CSc1ccccc1C(=O)Nc1ccc(-c2ccccc2)c2c1C(=O)NC2 [Example 96, 2-(Methylthio)-N-(3-oxo-7-phenylisoindolin-4-yl)benzamide]
1.8	CN(C)c1ccc(C(=O)Nc2ccc(-c3ccccc3)c3c2C(=O)NC3)cc1 [Example 139, 4-(Dimethylamino)-N-(3-oxo-7-phenylisoindolin-4-yl) benzamide]
0.77	Cc1ccc(C(=O)Nc2ccc(-c3ccccc3)c3c2C(=O)NC3)cc1 [Example 89, 4-Methyl-N-(3-oxo-7-phenylisoindolin-4-yl)benzamide]
> 20	CCCc1ccc(-c2ccc(NC(=O)c3ccccc3)c3c2CNC3=O)cc1 [Example 188, N-(3-oxo-7-(4-propylphenyl)isoindolin-4-yl)benzamide]
0.5	Cc1ccc(C(=O)Nc2ccc(Nc3ccccc3)c3c2C(=O)NC3)cc1 [Example 417, 4-Methyl-N-(3-oxo-7-(phenylamino)isoindolin-4-yl)benzamide]

IC50 [µM]	SMILES
2.5	O=C(Nc1ccc(F)cc1)Nc1ccc(-c2ccccc2)c2c1C(=O)NC2 [Example 226, 1-(4-Fluorophenyl)-3-(3-oxo-7-phenylisoindolin-4-yl)urea]
> 20	O=C(Nc1ccc(-c2ccccc2Cl)c2c1C(=O)NC2)c1ccccc1 [Example 174, N-(7-(2-chlorophenyl)-3-oxoisoindolin-4-yl)benzamide]
1.8	O=C(Nc1ccc(-c2ccccc2)c2c1C(=O)NCC2)c1ccco1 [Example 399, N-(1-oxo-5-phenyl-1,2,3,4-tetrahydroisoquinolin-8-yl)furan-2-carboxamide]
0.56	O=C(Nc1ccc(-c2ccccc2)c2c1C(=O)NC2)c1ccc(NCCN2CCCCCC2)cc1 [Example 369, 4-((2-(Azepan-1-yl)ethyl)amino)-N-(3-oxo-7-phenylisoindolin-4-yl)benzamide]
0.34	O=C(Nc1ccc(Nc2cccc(Cl)c2)c2c1C(=O)NC2)c1ccc(NCCN2CCCCC2)cc1 [Example 456, N-(7-((3-chlorophenyl)amino)-3-oxoisoindolin-4-yl)-4-((2-(piperidin-1-yl)ethyl)amino)benzamide]
> 20	O=C(Nc1ccc(-c2ccc(F)cc2F)c2c1C(=O)NC2)c1ccccc1 [Example 15, N-(7-(2,4-difluorophenyl)-3-oxoisoindolin-4-yl)benzamide]
> 20	O=C(Nc1ccc(-c2cccc(C(F)(F)F)c2)c2c1C(=O)NC2)c1ccccc1 [Example 115, N-(3-oxo-7-(3-(trifluoromethyl)phenyl)isoindolin-4-yl) benzamide]
1.13	O=C(Nc1ccc(Br)c2c1C(=O)NC2)c1ccc(NCCN2CCCCCC2)cc1 [Example 285, 4-((2-(azepan-1-yl)ethyl)amino)-N-(7-bromo-3-oxoisoindolin-4-yl)benzamide]
1.5	O=C(Nc1ccc(-c2cccc(F)c2)c2c1C(=O)NC2)c1ccccc1 [Example 151, N-(7-(3-fluorophenyl)-3-oxoisoindolin-4-yl)benzamide]
2.7	CN1CCN(c2ccc(C(=O)Nc3ccc(-c4ccccc4)c4c3C(=O)NC4)cc2)CC1 [Example 319, 4-(4-Methylpiperazin-1-yl)-N-(3-oxo-7-phenylisoindolin-4-yl)benzamide]
3.89	O=C(Nc1ccc(C(=O)O)c2c1C(=O)NC2)c1ccc(F)cc1 [Example 388, 7-(4-Fluorobenzamido)-1-oxoisoindoline-4-carboxylic acid]
0.41	Cc1cccc(Nc2ccc(NC(=O)c3ccc(NCCCN4CCCCC4)cc3)c3c2CNC3=O)c1C [Example 472, N-(7-((2,3-dimethylphenyl)amino)-3-oxoisoindolin-4-yl)-4-((3-(piperidin-1-yl)propyl)amino)benzamide]
> 20	O=C(Nc1ccc(-c2cccc(OC(F)(F)F)c2)c2c1C(=O)NC2)c1ccccc1 [Example 5, N-(3-oxo-7-(3-(trifluoromethoxy)phenyl)isoindolin-4-yl)benzamide]
0.37	COc1ccccc1-c1ccc(NC(=O)c2ccc(N3CCN(C)CC3)cc2)c2c1CNC2=O [Example 325, N-(7-(2-methoxyphenyl)-3-oxoisoindolin-4-yl)-4-(4-methylpiperazin-1-yl)benzamide]
> 20	CC(=O)c1cccc(-c2ccc(NC(=O)c3ccccc3)c3c2CNC3=O)c1 [Example 12, N-(7-(3-acetylphenyl)-3-oxoisoindolin-4-yl)benzamide]
> 20	O=C(Nc1ccc(S(=O)(=O)c2ccccc2)c2c1C(=O)NC2)c1ccccc1 [Example 406, N-(3-oxo-7-(phenylsulfonyl)isoindolin-4-yl)benzamide]
0.55	COc1cccc(Nc2ccc(NC(=O)c3ccc(NCCN4CCCC4)cc3)c3c2CNC3=O)c1 [Example 445, N-(7-((3-methoxyphenyl)amino)-3-oxoisoindolin-4-yl)-4-((2-(pyrrolidin-1-yl)ethyl)amino)benzamide]
> 20	CNCCNc1ccc(-c2ccccc2)c2c1C(=O)NC2 [Example 261, 7-((2-(Methylamino)ethyl)amino)-4-phenylisoindolin-1-one]
2.7	O=C(Nc1ccc(-c2ccoc2)c2c1C(=O)NC2)c1ccccc1 [Example 150, N-(7-(furan-3-yl)-3-oxoisoindolin-4-yl)benzamide]
0.58	Cc1cccc(Nc2ccc(NC(=O)c3ccc(NCCN4CCCCC4)cc3)c3c2CNC3=O)c1 [Example 450, N-(3-oxo-7-(m-tolylamino)isoindolin-4-yl)-4-((2-(piperidin-1-yl)ethyl)amino)benzamide]
0.43	Cc1ccccc1Nc1ccc(NC(=O)c2ccc(NCCN3CCCC3)cc2)c2c1CNC2=O [Example 473, N-(3-oxo-7-(o-tolylamino)isoindolin-4-yl)-4-((2-(pyrrolidin-1-yl)ethyl)amino)benzamide]
3	O=C(Nc1ccc(-c2ccccc2OC(F)(F)F)c2c1C(=O)NC2)c1ccccc1 [Example 4, N-(3-oxo-7-(2-(trifluoromethoxy)phenyl)isoindolin-4-yl)benzamide]

SMILES	IC50 [µM]
CCCCOc1ccc(-c2ccc(NC(=O)c3ccccc3)c3c2CNC3=O)cc1 [Example 184, N-(7-(4-butoxyphenyl)-3-oxoisoindolin-4-yl)benzamide]	> 20
